We go through 1 compound from ChEMBL document CHEMBL5465560, “Selectivity Literature for EUbOPEN Chemogenomic Library” (2024).

Assay [1] concerns T1, Receptor-type tyrosine-protein kinase FLT3 (Homo sapiens), P36888 [N841I].
T1 sequence (whole entry): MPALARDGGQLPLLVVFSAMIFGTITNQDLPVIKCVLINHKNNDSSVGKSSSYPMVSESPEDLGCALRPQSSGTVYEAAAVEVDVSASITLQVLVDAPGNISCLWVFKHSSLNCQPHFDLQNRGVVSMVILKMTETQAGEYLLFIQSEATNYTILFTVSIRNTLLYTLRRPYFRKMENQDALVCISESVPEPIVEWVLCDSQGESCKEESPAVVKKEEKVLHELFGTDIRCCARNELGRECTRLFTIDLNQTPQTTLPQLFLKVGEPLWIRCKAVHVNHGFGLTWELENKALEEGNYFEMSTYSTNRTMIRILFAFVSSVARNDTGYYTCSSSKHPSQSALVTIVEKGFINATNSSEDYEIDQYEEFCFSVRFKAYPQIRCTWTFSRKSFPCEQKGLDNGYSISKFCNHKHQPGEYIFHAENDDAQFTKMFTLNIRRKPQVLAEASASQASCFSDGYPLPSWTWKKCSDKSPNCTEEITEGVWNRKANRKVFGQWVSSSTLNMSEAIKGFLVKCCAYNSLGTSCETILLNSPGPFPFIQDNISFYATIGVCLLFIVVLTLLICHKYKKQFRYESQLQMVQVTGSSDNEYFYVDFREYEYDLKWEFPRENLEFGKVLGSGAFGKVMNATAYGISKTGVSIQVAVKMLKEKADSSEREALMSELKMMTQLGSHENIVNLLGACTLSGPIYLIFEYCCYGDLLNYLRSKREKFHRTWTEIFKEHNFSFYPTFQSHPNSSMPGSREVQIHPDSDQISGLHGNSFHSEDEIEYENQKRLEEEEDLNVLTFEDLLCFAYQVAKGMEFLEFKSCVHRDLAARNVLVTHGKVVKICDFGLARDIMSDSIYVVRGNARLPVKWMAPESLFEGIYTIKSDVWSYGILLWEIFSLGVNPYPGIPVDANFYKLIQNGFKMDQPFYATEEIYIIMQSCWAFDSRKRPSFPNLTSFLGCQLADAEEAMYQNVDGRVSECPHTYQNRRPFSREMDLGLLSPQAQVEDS
Briefly: (§1) Selectivity interaction (KinomeScan (DiscoverX)) EUB0000229b FLT3. The conditions noted are these: at 1 µM.

The subject of assay [2] is T2, Receptor-type tyrosine-protein kinase FLT3 (Homo sapiens), P36888 [D835H].
T2 sequence (whole entry): T1 sequence (whole entry) with D835H, I841N
The assay is described as §1. The following applies: at 1 µM.

For assay [3], the system named is Receptor-type tyrosine-protein kinase FLT3 (Homo sapiens), P36888 [UNDEFINED MUTATION]. The assay is described as §1. The following applies: at 1 µM.
Assay [4] relates to T3, Receptor-type tyrosine-protein kinase FLT3 (Homo sapiens), P36888 [R834Q].
T3 sequence (whole entry): T1 sequence (whole entry) with R834Q, I841N
Described as §1. The following applies: at 1 µM.

The target in assay [5] is Receptor-type tyrosine-protein kinase FLT3 (Homo sapiens) (UniProt P36888). Described as §1. The conditions noted are these: at 10 µM.

Numbering of substitutions follows the chain as printed.

With `COc1cc(N(C)c2ccnc3ccc(C(F)(F)F)cc23)cc(OC)c1OC`, the % binding in assay [1] was found to be 84%; in assay [2], 90%; in assay [3], 54%; in assay [4], 100%; in assay [5], 78%.
